Non-standard residues stand in square brackets, D forms with d. Residues, ends and D or L forms follow the SMILES beside them. Primed or numbered codes have the meaning given here. No end group written: not given here. *: point of attachment. FITC = O=C1OC2(c3ccc(O)cc3Oc3cc(O)ccc32)c2ccc(NC(=S)*)cc21; Phe(4-Me) = Cc1ccc(C[C@H](N)C(=O)O)cc1; FITC′ = not defined here
How the values were obtained:
ADGRG2-ΔGPS-β = target: T1, ADGRG2-ΔGPS-β (Mus musculus, UniProt Q8CJ12); assay: GloSensor cAMP assay, HEK293 transfected with ADGRG2-ΔGPS-β; assay type: cell-based
T1 construct: the entire ECD (including the entire GPS motif) was removed (ADGRG2-ΔGPS-β); expressed in transfected cells; host or cells: HEK293
T1 sequence (Q8CJ12 618-1009 limits assumed, stated change not applied): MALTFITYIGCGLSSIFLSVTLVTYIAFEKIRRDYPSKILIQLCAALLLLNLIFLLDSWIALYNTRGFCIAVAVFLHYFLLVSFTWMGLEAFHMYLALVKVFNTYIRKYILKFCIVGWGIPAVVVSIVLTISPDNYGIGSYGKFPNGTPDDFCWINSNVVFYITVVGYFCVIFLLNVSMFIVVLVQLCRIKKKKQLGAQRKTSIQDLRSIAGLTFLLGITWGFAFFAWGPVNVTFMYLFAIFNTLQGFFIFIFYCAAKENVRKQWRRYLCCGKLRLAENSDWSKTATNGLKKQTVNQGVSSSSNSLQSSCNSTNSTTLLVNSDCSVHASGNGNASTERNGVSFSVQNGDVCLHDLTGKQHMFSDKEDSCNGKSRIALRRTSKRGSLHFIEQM
From the text: Wildtype ADGRG2 full-length (ADGRG2-FL) was cloned from mouse total cDNA libraries using the following primers: forward, […]; reverse, […], and then ADGRG2-FL, ADGRG2 C-terminal truncation mutant (ADGRG2-β), and ADGRG2-ΔGPS-β (the entire ECD of ADGRG2 was deleted) were subcloned into the pcDNA3.1 expression vector. The ADGRG2-ΔGPS-β mutants (T610A, Y611A, C614A, S661A, W662A, I663A, L665A, Y666A，N667A, F671A, L679A, L683A, I730A, V731A, F741A, F747A, W757A, I758A, N759A, S760A, V762A, F764A, Y765A, V768A, V769A, F772A, V774A, W824A, F826A, F828A, F829A, V834A, V836A, F838A, M839A, I844A, F845A) were generated using a QuikChange Mutagenesis Kit (Stratagene). All mutations were verified by DNA sequencing.
Human embryonic kidney 293 (HEK293) cells were maintained in Dulbecco’s modified Eagle’s medium supplemented with 10% fetal bovine serum, penicillin (100 IU/ml), and streptomycin (100 μg/ml) as described ([6], [38]). For receptor or other protein expression, plasmids carrying the desired genes were transfected into cells using Lipofectamine 2000 (Invitrogen).
The Glosensor cAMP assay was performed as described ([6], [39], [40]). HEK293 cells were transfected with the GloSensor plasmid and the desired expression plasmids in 24-well dishes. Twenty-four hours after transfection, the cells were plated on 96-well plates at a cell density of 20,000 cells/well. The cells were maintained in Dulbecco’s modified Eagle’s medium for another 24 h, washed with PBS, and then incubated with 100 μl of solution containing 10% fetal bovine serum, 2% (v/v) GloSensor cAMP reagent, and 88% CO2-independent medium in each well for 2 h. The cAMP signal was examined using a luminescence counter (Mithras LB 940).

Rluc-ADGRG2-ΔGPS-β I758A = assay: BRET binding of FITC-VPM-p15; parameters: species or system mouse; conditions: HEK293, BRET saturation binding, repeated 6 times
Experimental: (§1) The binding capacities of ADGRG2 WT or its mutants for VPM-p15 were determined by BRET assay, which has been used in previous studies ([27], [28], [29]). We fused the N terminus of ADGRG2 with a Rluc fragment and coupled FITC to the C terminus of VPM-p15 to facilitate BRET measurement. We stimulated the HEK293 cells transfected with Rluc-ADGRG2-ΔGPS-β wildtype (WT) or mutants by increasing the concentration of FITC-conjugated VPM-p15, and their binding abilities were determined by fitting the data with the saturation curves.
(§2) In the detection of binding capacities of ADGRG2 WT or its mutants for VPM-p15, HEK293 cells were transfected with Rluc-ADGRG2-ΔGPS-β or mutants. Transfected cells were stimulated by increasing the concentration of FITC-conjugated VPM-p15. Binding capacities were determined by BRET, EC50 values of ADGRG2 WT and its mutants for binding VPM-p15 were calculated by GraphPad, and data were normalized by EC50 of WT.

Rluc-ADGRG2-ΔGPS-β W757A = assay: BRET binding of FITC-VPM-p15; parameters: species or system mouse; conditions: HEK293, BRET saturation binding, repeated 6 times
Experimental: as §1, §2

Rluc-ADGRG2-ΔGPS-β W824A = assay: BRET binding of FITC-VPM-p15; parameters: species or system mouse; conditions: HEK293, BRET saturation binding, repeated 6 times
Experimental: as §1, §2

Rluc-ADGRG2-ΔGPS-β F826A = target: T2, Rluc-ADGRG2-ΔGPS-β F826A (Mus musculus, UniProt Q8CJ12, F840A); assay: BRET binding of FITC-VPM-p15; conditions: mutant F826A
T2 construct: expressed in transfected cells; host or cells: HEK293
T2 sequence (Q8CJ12 614-1009 F840A): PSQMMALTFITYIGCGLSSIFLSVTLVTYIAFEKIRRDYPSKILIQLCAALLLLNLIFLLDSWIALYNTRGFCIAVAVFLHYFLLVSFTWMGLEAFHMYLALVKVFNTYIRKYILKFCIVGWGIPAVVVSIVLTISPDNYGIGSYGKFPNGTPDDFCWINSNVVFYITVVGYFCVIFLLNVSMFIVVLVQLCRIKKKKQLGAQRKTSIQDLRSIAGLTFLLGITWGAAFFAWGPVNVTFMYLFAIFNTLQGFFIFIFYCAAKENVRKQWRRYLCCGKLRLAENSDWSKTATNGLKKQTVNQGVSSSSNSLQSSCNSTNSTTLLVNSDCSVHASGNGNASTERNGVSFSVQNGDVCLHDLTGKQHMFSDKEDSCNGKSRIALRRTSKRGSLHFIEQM
Experimental: as §1, §2

Rluc-ADGRG2-ΔGPS-β V769A = target: T3, Rluc-ADGRG2-ΔGPS-β V769A (Mus musculus, UniProt Q8CJ12, V783A); assay: BRET binding of FITC-VPM-p15; conditions: mutant V769A
T3 construct: expressed in transfected cells; host or cells: HEK293
T3 sequence (Q8CJ12 614-1009 V783A): as the sequence (Q8CJ12 614-1009 F840A) above, with V170A, A227F counted along it
Experimental: as §1, §2

Rluc-ADGRG2-ΔGPS-β Y611A = target: T4, Rluc-ADGRG2-ΔGPS-β Y611A (Mus musculus, UniProt Q8CJ12, Y625A); assay: BRET binding of FITC-VPM-p15; conditions: mutant Y611A
T4 construct: the entire ECD (including the entire GPS motif) was removed (ADGRG2-ΔGPS-β); expressed in transfected cells; host or cells: HEK293
T4 sequence (Q8CJ12 618-1009 Y625A limits assumed): as the sequence (Q8CJ12 618-1009 limits assumed, stated change not applied) above, with Y8A counted along it
Experimental: as §1, §2

Rluc-ADGRG2-ΔGPS-β N667A = target: T5, Rluc-ADGRG2-ΔGPS-β N667A (Mus musculus, UniProt Q8CJ12, N681A); assay: BRET binding of FITC-VPM-p15; conditions: mutant N667A
T5 construct: the entire ECD (including the entire GPS motif) was removed (ADGRG2-ΔGPS-β); expressed in transfected cells; host or cells: HEK293
T5 sequence (Q8CJ12 618-1009 N681A limits assumed): as the sequence (Q8CJ12 618-1009 limits assumed, stated change not applied) above, with N64A counted along it
Experimental: as §1, §2

Rluc-ADGRG2-ΔGPS-β S661A = target: T6, Rluc-ADGRG2-ΔGPS-β S661A (Mus musculus, UniProt Q8CJ12, S675A); assay: BRET binding of FITC-VPM-p15; conditions: mutant S661A
T6 construct: the entire ECD (including the entire GPS motif) was removed (ADGRG2-ΔGPS-β); expressed in transfected cells; host or cells: HEK293
T6 sequence (Q8CJ12 618-1009 S675A limits assumed): as the sequence (Q8CJ12 618-1009 limits assumed, stated change not applied) above, with S58A counted along it
Experimental: as §1, §2

Rluc-ADGRG2-ΔGPS-β C614A = target: T7, Rluc-ADGRG2-ΔGPS-β C614A (Mus musculus, UniProt Q8CJ12, C628A); assay: BRET binding of FITC-VPM-p15; conditions: mutant C614A
T7 construct: the entire ECD (including the entire GPS motif) was removed (ADGRG2-ΔGPS-β); expressed in transfected cells; host or cells: HEK293
T7 sequence (Q8CJ12 618-1009 C628A limits assumed): as the sequence (Q8CJ12 618-1009 limits assumed, stated change not applied) above, with C11A counted along it
Experimental: as §1, §2

Rluc-ADGRG2-ΔGPS-β M839A = target: T8, Rluc-ADGRG2-ΔGPS-β M839A (Mus musculus, UniProt Q8CJ12, M853A); assay: BRET binding of FITC-VPM-p15; conditions: mutant M839A
T8 construct: expressed in transfected cells; host or cells: HEK293
T8 sequence (Q8CJ12 614-1009 M853A): as the sequence (Q8CJ12 614-1009 F840A) above, with A227F, M240A counted along it
Experimental: as §1, §2

Rluc-ADGRG2-ΔGPS-β F772A = target: T9, Rluc-ADGRG2-ΔGPS-β F772A (mouse, UniProt Q8CJ12-3 38-995, F772A); assay: FRET or BRET; HEK293 cells transfected with Rluc-ADGRG2-ΔGPS-β WT or mutants, stimulated by increasing concentrations of FITC-conjugated VPM-p15; saturation curves fitted with GraphPad; each experiment repeated 6 times; conditions: one partner purified
T9 construct: ADGRG2 (GPR64), mouse, ADGRG2-ΔGPS-β: the entire ECD removed; source: HEK293, transfected, on cells; not shown: Rluc, N-terminal, kept
T9 sequence (Q8CJ12 other isoform, or with tags, fused parts or gaps F772A | F772A | F772A F772A): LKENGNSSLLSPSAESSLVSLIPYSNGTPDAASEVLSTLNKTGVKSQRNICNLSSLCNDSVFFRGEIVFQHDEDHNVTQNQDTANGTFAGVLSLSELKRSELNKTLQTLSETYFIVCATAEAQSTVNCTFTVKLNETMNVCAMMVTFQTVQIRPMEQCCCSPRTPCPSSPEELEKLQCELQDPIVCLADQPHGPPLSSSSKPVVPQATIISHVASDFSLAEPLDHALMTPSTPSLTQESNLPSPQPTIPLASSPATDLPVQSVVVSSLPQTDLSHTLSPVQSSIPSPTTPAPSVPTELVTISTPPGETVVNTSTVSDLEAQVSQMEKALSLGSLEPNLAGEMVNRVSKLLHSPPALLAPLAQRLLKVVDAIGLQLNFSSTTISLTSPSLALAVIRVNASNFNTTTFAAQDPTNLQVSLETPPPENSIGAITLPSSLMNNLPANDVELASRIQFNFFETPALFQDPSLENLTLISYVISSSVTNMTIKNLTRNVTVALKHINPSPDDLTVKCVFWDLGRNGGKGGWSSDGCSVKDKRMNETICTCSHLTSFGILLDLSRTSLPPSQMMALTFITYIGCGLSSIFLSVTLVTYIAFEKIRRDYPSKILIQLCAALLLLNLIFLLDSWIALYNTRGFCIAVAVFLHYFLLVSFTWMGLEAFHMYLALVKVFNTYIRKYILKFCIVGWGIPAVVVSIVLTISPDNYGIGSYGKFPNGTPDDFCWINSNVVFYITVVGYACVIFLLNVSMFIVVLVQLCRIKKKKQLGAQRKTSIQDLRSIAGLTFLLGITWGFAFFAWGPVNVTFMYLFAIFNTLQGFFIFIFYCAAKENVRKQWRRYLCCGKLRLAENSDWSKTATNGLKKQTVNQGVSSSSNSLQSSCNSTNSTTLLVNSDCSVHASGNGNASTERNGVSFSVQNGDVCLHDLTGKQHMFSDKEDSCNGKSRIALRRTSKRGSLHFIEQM

[1] = Kd(mutated ADGRG2-ΔGPS-β)/Kd(WT)

**Q.** Which results are given for CC[C@H](C)[C@H](NC(=O)CNC(=O)[C@H](Cc1ccc(C)cc1)NC(=O)[C@H](CO)NC(=O)[C@@H](N)C(C)C)C(=O)N[C@@H](CC(C)C)C(=O)N[C@@H](CC(C)C)C(=O)N[C@@H](CC(=O)O)C(=O)N[C@@H](CC(C)C)C(=O)N[C@@H](CO)C(=O)N[C@@H](CCCNC(=N)N)C(=O)N[C@H](C(=O)N[C@@H](CO)C(=O)N[C@@H](CC(C)C)C(=O)N1CCC[C@H]1C(=O)O)[C@@H](C)O [VPM-p15] (H-VS[Phe(4-Me)]GILLDLSRTSLP-OH)?
**A.** EC50 (ADGRG2-ΔGPS-β; cAMP Glosensor, ADGRG2-ΔGPS-β, HEK293): 1.41 ± 0.16 µM; EC50 compared with wildtype p15 or other mutants (ADGRG2-ΔGPS-β; concentration-response curves, cAMP Glosensor, ADGRG2-ΔGPS-β): significant lower EC50 than other mutants; EC50 (ADGRG2-ΔGPS-β; receptor WT (Table S4), HEK293, cAMP Glosensor): 1.06 µM

**Q.** For CC[C@H](C)[C@H](NC(=O)CNC(=O)[C@H](Cc1ccc(C)cc1)NC(=O)[C@H](CO)NC(=O)[C@@H](N)C(C)C)C(=O)N[C@@H](CC(C)C)C(=O)N[C@@H](CC(C)C)C(=O)N[C@@H](CC(=O)O)C(=O)N[C@@H](CC(C)C)C(=O)N[C@@H](CO)C(=O)N[C@@H](CCCNC(=N)N)C(=O)N[C@H](C(=O)N[C@@H](CO)C(=O)N[C@@H](CC(C)C)C(=O)N1CCC[C@H]1C(=O)N[C@@H](CCCCNC(=S)Nc1ccc2c(c1)C(=O)OC21c2ccc(O)cc2Oc2cc(O)ccc21)C(=O)O)[C@@H](C)O [FITC-VPM-p15] (H-VS[Phe(4-Me)]GILLDLSRTSLPK(FITC)-OH; N-terminus and C-terminus assumed), which “Binding to mutant (result in words across EC50 / Fmut / Bmax)” value (Rluc-ADGRG2-ΔGPS-β I758A) is on record?
**A.** No binding

**Q.** What about the “Binding to mutant (result in words across EC50 / Fmut / Bmax)” value (Rluc-ADGRG2-ΔGPS-β W757A) of the same molecule?
**A.** No binding

**Q.** What about the “Binding to mutant (result in words across EC50 / Fmut / Bmax)” value (Rluc-ADGRG2-ΔGPS-β W824A) of the same molecule?
**A.** No binding

**Q.** What about the Fmut (Rluc-ADGRG2-ΔGPS-β F826A; [1]) of the same molecule?
**A.** 1.248

**Q.** And the Bmax (Rluc-ADGRG2-ΔGPS-β F826A; binding Bmax (BRET))?
**A.** 0.734±0.035

**Q.** And the Fmut (Rluc-ADGRG2-ΔGPS-β V769A; [1])?
**A.** 1.145

**Q.** What about the Bmax (Rluc-ADGRG2-ΔGPS-β V769A; binding Bmax (BRET)) of the same molecule?
**A.** 0.763±0.074

**Q.** What about the Fmut (Rluc-ADGRG2-ΔGPS-β Y611A; [1]) of the same molecule?
**A.** 0.761

**Q.** And the Bmax (Rluc-ADGRG2-ΔGPS-β Y611A; binding Bmax (BRET))?
**A.** 0.7912±0.020

**Q.** And the Fmut (Rluc-ADGRG2-ΔGPS-β N667A; [1])?
**A.** 0.975

**Q.** And the Bmax (Rluc-ADGRG2-ΔGPS-β N667A; binding Bmax (BRET))?
**A.** 0.803±0.028

**Q.** And the Fmut (Rluc-ADGRG2-ΔGPS-β S661A; [1])?
**A.** 0.832

**Q.** What about the Bmax (Rluc-ADGRG2-ΔGPS-β S661A; binding Bmax (BRET)) of the same molecule?
**A.** 0.6895±0.021

**Q.** What about the Fmut (Rluc-ADGRG2-ΔGPS-β C614A; [1]) of the same molecule?
**A.** 1.382

**Q.** And the Bmax (Rluc-ADGRG2-ΔGPS-β C614A; binding Bmax (BRET))?
**A.** 0.7934±0.0241

**Q.** And the Fmut (Rluc-ADGRG2-ΔGPS-β M839A; [1])?
**A.** 0.957

**Q.** And the Bmax (Rluc-ADGRG2-ΔGPS-β M839A; binding Bmax (BRET))?
**A.** 0.764±0.008

**Q.** With VS[Phe(4-Me)]GILLDLSRTSLP-{FITC′} [FITC-conjugated VPM-p15 (ADGRG2 Stachel peptide p15 T1V/F3Phe(4-Me))] as the molecule, how does the EC50 (Rluc-ADGRG2-ΔGPS-β F772A) read?
**A.** 0.843 µM
